# Assay results reported in US7115708B2 (priority 2001, dated 2006).
# pIC50: −log10 of the molar value.
# Tests used:
# MIA PaCa-2 [1] = system: MIA PaCa-2
# MCF-7 [2] = system: MCF-7
# MCF-7 [3] = assay: cells; conditions: Homo sapiens, MCF7, read-out: Estimated IC50 (50% Inhibition Concentration)
# MIA PaCa-2 [4] = assay: cells; conditions: Homo sapiens, MIA PaCa-2, read-out: Estimated IC50 (50% Inhibition Concentration)
# tumor patients = conditions: in vivo; cited from earlier work
Compound,Estimated TGI (Total Growth Inhibition) (MIA PaCa-2 [1]),Estimated TGI (Total Growth Inhibition) (MCF-7 [2]),pIC50 (MCF-7 [3]),pIC50 (MIA PaCa-2 [4]),patients with stable tumor disease (tumor patients),toxicity reported (tumor patients),tumor patients with regressive disease (tumor patients)
CO[C@@]12[C@H](COC(N)=O)C3=C(C(=O)C(C)=C(N)C3=O)N1C[C@@H]1N[C@@H]12 [Mitomycin],150 nM,180 nM,7.46,7.55,–,–,–
^90Y-DOTA-lanreotide,–,–,–,–,roughly 35%,No acute or chronic severe hematological toxicity,15%
